Experimental data reported in the NIST ThermoML archive (doi:10.1016/j.jct.2016.02.025).
Numbers after ± are expanded uncertainties.

Legend:
[1] = 100 kPa; for speed of sound: Frequency=3 MHz, Sing-around technique in a fixed-path interferometer; for mass density: Vibrating tube method
[2] = refractive index (Na D-line) (dimensionless); settings: 100 kPa, Standard Abbe refractometry

CCCCn1cc[n+](C)c1.[Br-] [1-butyl-3-methylimidazolium bromide]
Metastable liquid
Settings | mass density, [1] [kg/m3] | refractive index, [2] | speed of sound, [1] [m/s]
293.15 K | 1293.44 ± 3.2 | 1.54699 ± 0.0012 | 1675.2 ± 3.5
298.15 K | 1290.02 ± 3.2 | 1.54575 ± 0.0012 | 1665.7 ± 3.5
303.15 K | 1286.59 ± 3.2 | 1.54445 ± 0.0012 | 1656 ± 3.5
308.15 K | 1283.16 ± 3.2 | 1.54312 ± 0.0012 | 1646 ± 3.5
313.15 K | 1279.72 ± 3.2 | 1.54186 ± 0.0012 | 1636.1 ± 3.5
318.15 K | 1276.28 ± 3.2 | 1.54052 ± 0.0012 | 1626.7 ± 3.5
323.15 K | 1272.84 ± 3.1 | 1.53928 ± 0.0012 | 1616.8 ± 3.5

CCCCCCCCn1cc[n+](C)c1.[Br-] [1-methyl-3-octylimidazolium bromide]
Liquid
Settings | mass density, [1] [kg/m3] | refractive index, [2] | speed of sound, [1] [m/s]
293.15 K | 1179.3 ± 1.5 | 1.498 ± 0.0011 | 1481.8 ± 2.5
298.15 K | 1175.69 ± 1.5 | 1.49656 ± 0.0011 | 1467.6 ± 2.5
303.15 K | 1172.08 ± 1.5 | 1.49502 ± 0.0011 | 1454.3 ± 2.5
308.15 K | 1168.54 ± 1.5 | 1.49347 ± 0.0011 | 1441.4 ± 2.5
313.15 K | 1165.04 ± 1.5 | 1.49176 ± 0.0011 | 1428.8 ± 2.5
318.15 K | 1161.52 ± 1.5 | 1.49008 ± 0.0011 | 1416.5 ± 2.5
323.15 K | 1157.99 ± 1.5 | 1.48842 ± 0.0011 | 1404.4 ± 2.5

CCCCCCn1cc[n+](C)c1.[Br-] [3-hexyl-1-methyl-1H-imidazolium bromide]
Liquid
Settings | mass density, [1] [kg/m3] | refractive index, [2] | speed of sound, [1] [m/s]
293.15 K | 1227.46 ± 1.4 | 1.51183 ± 0.0011 | 1609.1 ± 2.3
298.15 K | 1223.74 ± 1.4 | 1.50982 ± 0.0011 | 1588.1 ± 2.3
303.15 K | 1220.31 ± 1.4 | 1.50796 ± 0.0011 | 1570.4 ± 2.3
308.15 K | 1216.69 ± 1.4 | 1.50612 ± 0.0011 | 1552.3 ± 2.3
313.15 K | 1213.05 ± 1.4 | 1.50427 ± 0.0011 | 1534.4 ± 2.3
318.15 K | 1209.41 ± 1.4 | 1.50232 ± 0.0011 | 1517.4 ± 2.3
323.15 K | 1205.58 ± 1.4 | 1.50047 ± 0.0011 | 1500 ± 2.3
